We go through 94 compounds from PubChem BioAssay AID1902 (Broad Institute, 2009).

Calls of active or inactive are those of the source.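 The calls were made as follows: active = EC50 no more than a set limit of log units above the highest dose; inactive = the rest.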

The target of the assay is S. pyogenes SKKanGAS, kanamycin survival, BacTiterGlo, 6 h. Kind of assay: S. pyogenes SKKanGAS kanamycin growth inhibitors – SKKanGAS strain, luminescence, dose confirmation, streptokinase promoter inhibitor project, dose response (AID 1902).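 Also: lower survival reflects blocked streptokinase promoter driving kanamycin resistance gene.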
Regarding `O=C(O)c1ccc(N2C(=O)CC(SC(=NCc3ccc4c(c3)OCO4)Nc3ccc(F)cc3)C2=O)cc1` (centres undefined), the EC50 is 8.24 µM.

As for `CCCOc1ccc(C(=O)NNC(=S)NC(=O)c2ccccc2[N+](=O)[O-])cc1`, the EC50 was 1.8 µM.

Take `O=C(Cn1nc2ccccc2n1)N/N=C/c1cc([N+](=O)[O-])ccc1O`: the EC50 is 0.73 µM.

Turning to `Oc1c(C(Nc2cccc(C(F)(F)F)c2)c2cccnc2)ccc2cccnc12` (centres undefined), the 50% effective concentration (EC50) is 1.53 µM.

As for `CC(=O)Nc1ccc(C2C(=O)c3ccccc3C2=O)cc1`, the EC50 is > 15 µM (inactive).

Consider `CCOC(=O)c1cc(-c2ccc3c(c2)OCCO3)nc2c1c(C)nn2CCC#N`, for which the EC50 was 3.42 µM.

For the compound `Oc1ccccc1N=Cc1c(O)ccc2oc3c(c12)CCCC3`, the EC50 was 5.52 µM.

As for `COc1ccccc1CN1CC(C(=O)NCc2ncccc2C)CCC1=O` (centres undefined), the EC50 was > 15 µM (inactive).

As to `CC1=NN(c2ccccc2)C(=O)/C1=C/c1c(O)n(-c2ccc(F)c(Cl)c2)[nH]c1=O`, the EC50 was 3.61 µM.

Consider `Cc1sc2nc(-c3ccccn3)[nH]c(=O)c2c1-c1ccccc1`, for which the EC50 is 1.28 µM.

Turning to `Cc1cc(C)c2nc(-c3ccncc3)cc(C(=O)N3CCN(Cc4ccccc4Cl)CC3)c2c1`, the EC50 is 4.72 µM.

For the compound `COC(=O)c1cc(-c2ccc(Br)cc2)c2c(=O)[nH]c(=O)n(C)c2n1`, the EC50 is 1.22 µM.

On to `O=C(Nc1nnc(C2CC2)s1)c1cc(-c2ccccc2)nn1-c1ccccc1`, for which the concentration giving a half-maximal response (EC50) was 6.47 µM.

Turning to `CCOc1ccc2[nH]c3c(N4CCc5ccccc5C4)ncnc3c2c1`, the EC50 was 7.94 µM.

On to `O=C(Nc1ncc(Cc2cccc(Cl)c2)s1)c1cccs1`, for which the concentration for a half-maximal effect (EC50) is 3.91 µM.

As to `O=[N+]([O-])/C=C/c1ccc2c(ccn2Cc2ccccc2)c1`, the EC50 was 3.04 µM.

Turning to `O=c1cc(-c2ccc(O)c(-c3c(O)cc(O)c4c(=O)cc(-c5ccc(O)cc5)oc34)c2)oc2cc(O)cc(O)c12`, the concentration for a half-maximal effect (EC50) is 2.3 µM.

For `COc1ccc(CCNC(=O)c2cc(-c3ccc(Cl)c(Cl)c3)oc2C)cc1`, the EC50 is 12.2 µM.

For `C/C(=N/NC(=O)c1cc2ccccc2cc1O)C1C(=O)c2ccccc2C1=O`, the EC50 was 1.57 µM.

With `COc1ccc(NC(=O)C(=O)NNC(=O)C(C)Oc2ccc(Cl)cc2Cl)cc1` (centres undefined), the EC50 was 3.31 µM.

On to `CCCn1c(NC(=O)c2ccccc2)nc2ccccc21`, for which the EC50 is 1.57 µM.

In the case of `Cc1ccc(S(=O)(=O)Nc2cccc3cccnc23)c([N+](=O)[O-])c1`, the EC50 was 0.632 µM.

`O=C(Nc1nnc(C2=COCCO2)o1)c1ccc(Cc2ccccc2)cc1`: the 50% effective concentration (EC50) was 1.47 µM.

Regarding `FC(F)(F)c1nc(N2CCN(c3ccccc3)CC2)nc2c1CCCCC2`, the EC50 was 2.77 µM.

Turning to `COc1cccc(/C=N/Nc2cc(N3CCOCC3)ncn2)c1O`, the EC50 was 7.64 µM.

For the compound `CC(/C=C1\SC(=S)N(NS(=O)(=O)c2ccc(C)cc2)C1=O)=C\c1ccccc1`, the EC50 is 2.88 µM.

Turning to `CCOc1ccc(C)cc1S(=O)(=O)NC1CCCCCC1`, the EC50 was > 15 µM (inactive).

With `CC(C)c1ccc(-n2cccc2/C=C2/C(=N)N3C=CSC3=NC2=O)cc1`, the EC50 was 3.28 µM.

Regarding `COc1ccccc1-n1c(SCC(=O)Nc2ccc(C)cc2)nc(O)cc1=O`, the concentration for a half-maximal effect (EC50) was 13.6 µM.

For the compound `O=C(Cc1cccs1)Nc1cccc(-c2nc3cc4ccccc4cc3[nH]2)c1`, the concentration for a half-maximal effect (EC50) was 4.25 µM.

For the compound `Cc1cccc(NC2=Nc3ccccc3N3C2=Nc2c(c(C)nn2-c2ccccc2)C3c2ccc(O)c(O)c2)c1` (centres undefined), the EC50 was 4.54 µM.

In the case of `COc1ccc2cc3c(N)nn(C(=O)C4CCC(C(C)(C)C)CC4)c3nc2c1` (centres undefined), the EC50 was 1.95 µM.

As for `CC(C)[C@@H](C(=O)NC1CCCC1)N1C(=O)N2CCc3c([nH]c4ccccc34)[C@@]2(C)C1=O`, the EC50 was > 15 µM (inactive).

As to `Oc1ccc(N=Nc2ccc3c(c2)OCCO3)c2ncccc12`, the concentration giving a half-maximal response (EC50) is 0.419 µM.

On to `Cc1ccc(-c2csc3ncnc(NS(=O)(=O)c4ccc(Cl)cc4)c23)cc1`, for which the EC50 is 6.82 µM.

Take `Clc1ccc(-c2n[nH]c3c2CCC3)c(Cl)c1`: the EC50 is 0.975 µM.

`c1ccc(C(NCCNC(c2ccccc2)c2ccccc2)c2ccccc2)cc1`: the EC50 was 1.05 µM.

Take `Cc1ccc2c(=O)[nH]c(Nc3nc(C)cc(-c4ccccc4)n3)nc2c1`: the half-maximal effective concentration (EC50) is 3.37 µM.

Take `N#Cc1ccc(C(=O)Nc2nc(SCc3ccc(Cl)cc3)n[nH]2)cc1`: the concentration for a half-maximal effect (EC50) was 1.52 µM.

With `Oc1c(C(c2ccccn2)N2CCCCC2)cc(Cl)c2cccnc12` (centres undefined), the EC50 was 8.88 µM.

With `COc1ccc(OC)c(C2C=C(C34CC5CC(CC(C5)C3)C4)NC(=S)N2)c1` (centres undefined), the EC50 was 2.96 µM.

For `CCS(=O)(=O)N1Cc2ccccc2CC1C(=O)Nc1nnc(SCc2ccc(C#N)cc2)s1` (centres undefined), the EC50 is 8.26 µM.

For `COc1ccc(C(=O)N2CCc3c([nH]c4ccccc34)C2C(F)(F)F)cc1` (centres undefined), the EC50 is > 15 µM (inactive).

With `Cc1ccc(C)c(N2CCN(C(=O)CCCCCn3c(=S)[nH]c4ccc(N5CCOCC5)cc4c3=O)CC2)c1`, the EC50 was 7.93 µM.

For the compound `O=c1[nH]c2cc3c(cc2cc1CN(CCc1ccccc1)Cc1nnnn1CC1CCCO1)OCO3` (centres undefined), the EC50 is > 15 µM (inactive).

Turning to `CCOC(=O)C1=NN(C(=O)c2ccc(C)cc2)C(O)(c2ccc(Cl)cc2)C1` (centres undefined), the EC50 is 3.06 µM.

As for `O=C(NCCS(=O)(=O)N1CCN(c2ccccc2F)CC1)C1CC(=O)N(c2ccc(F)cc2)C1` (centres undefined), the EC50 was > 15 µM (inactive).

Turning to `COc1cnc(-c2ccccn2)nc1Sc1ccc(Cl)cc1`, the EC50 was 4.96 µM.

On to `Cc1ccnn2c(-c3ccccc3)c3c(=O)n(C)c(=O)n(C)c3c12`, for which the EC50 is > 15 µM (inactive).

As for `CC[C@@H](C)[C@H](NC(=O)OC(C)(C)C)c1nnc(S(=O)(=O)Cc2cc(C)ccc2C)o1`, the EC50 was 9.66 µM.

As to `Cc1cc(C)c(C(=O)Nc2ccc(Br)c(C(F)(F)F)c2)c(C)c1`, the EC50 was 2.79 µM.

Consider `CCCN(CCC)c1nc(-c2ccccn2)nc2ccccc12`, for which the EC50 was 0.074 µM.

Consider `CC1CCN(c2nc(CN3CCCCC3)nc3scc(-c4ccccc4)c23)CC1`, for which the EC50 is 3.02 µM.

For the compound `Cc1nn(-c2ccccc2)c(Cl)c1/C=C1\SC(=S)N(CCCCCC(=O)O)C1=O`, the half-maximal effective concentration (EC50) is 3.04 µM.

For `CC(C)c1nc(NCc2ccccc2)c(C#N)c2c1CCCC2`, the half-maximal effective concentration (EC50) is 3.55 µM.

Consider `O=C(Nc1nc(-c2cc(Cl)sc2Cl)cs1)c1cccs1`, for which the EC50 is 8.68 µM.

In the case of `CCCOC(=O)c1ccc(Oc2cn[nH]c2-c2ccc(OC)cc2O)cc1`, the EC50 is 7.36 µM.

In the case of `COc1ccc2nc(C3CCCCC3)nc(C3CCCCC3)c2c1`, the concentration for a half-maximal effect (EC50) is 2.66 µM.

Take `COc1cc(C)ccc1NC(=O)Cc1csc(NC(=O)Nc2ccccc2OC)n1`: the EC50 is 15.7 µM.

For the compound `CCOc1ccc(Nc2nc(N3CCCCC3)nc(N3CCCCC3)n2)cc1`, the EC50 is 0.65 µM.

For the compound `Cc1cccc(N2CCN(C(=O)C34CC5CC(CC(C5)C3)C4)CC2)c1C`, the EC50 was 5.65 µM.

Regarding `Cc1n[nH]c(C)c1CCCOc1ccccc1`, the EC50 is 5.14 µM.

Turning to `CCOC(=O)c1csc(Nc2nc3ccc(F)cc3s2)n1`, the EC50 was 3.21 µM.

Turning to `Cc1cccc(OCC(=O)Nc2ccccc2N2CCCCC2)c1C`, the EC50 was 4.8 µM.

`CCN(c1ccccc1)S(=O)(=O)c1ccc(C(=O)Nc2nnc(-c3ccco3)o2)cc1`: the EC50 is 2.04 µM.

On to `S=C(NCc1cccs1)Nc1cc(Cl)cc(Cl)c1`, for which the EC50 was 7.18 µM.

With `CCCCCCCOC(=O)C[N+](C)(C)CCOC1CC2CCC1(C)C2(C)C` (centres undefined), the EC50 is 4.52 µM.

For the compound `Cc1oc(C(C)(C)C)cc1C(=O)N1CCN(C(c2ccccc2)c2ccccc2)CC1`, the EC50 was 2.89 µM.

As to `Cc1cc(C)n(-c2nc(SCC(=O)O)c3c4c(sc3n2)CCCC4)n1`, the EC50 was 5.93 µM.

`O=C(NC(=S)Nc1ccc(Cl)cn1)C(c1ccccc1)c1ccccc1`: the EC50 is 3.43 µM.

In the case of `CC(C)Cn1c(=O)c(C(=O)N/N=C/c2cccc(F)c2)c(O)c2ccccc21`, the EC50 is 1.83 µM.

With `CCc1nc(SCC(=O)N2c3ccccc3CC2C)c2c(C)c(C)sc2n1` (centres undefined), the EC50 was 8.61 µM.

`Cn1nnc(-c2ccc(OCc3ccccc3F)cc2)n1`: the EC50 is 9.46 µM.

For `COc1cccc(-c2nn(C)c3sc(C(=O)Nc4ccc5c(c4)OCCO5)cc23)c1`, the EC50 is 3.65 µM.

Turning to `O=C(N/N=C/c1c(O)ccc2ccccc12)Nc1ccccc1`, the EC50 was 7.74 µM.

On to `Cc1cc(C)c2nc(NNC(=O)c3ccc(S(=O)(=O)N4CCCC(C)C4)cc3)sc2c1` (centres undefined), for which the EC50 was 0.297 µM.

On to `Cn1nc(-c2ccccc2)c(CSc2cccc(Cl)c2)c1Cl`, for which the EC50 was 1.08 µM.

Turning to `Cc1[nH]n(-c2ccccc2)c(=O)c1N=Nc1c(O)cc(S(=O)(=O)N(C)C)c2ccccc12`, the EC50 is 1.1 µM.

Consider `CC(C)COc1ccc(-c2nn(-c3ccccc3)cc2/C=C2/SC(=S)N(CC(=O)O)C2=O)cc1`, for which the EC50 is 2.18 µM.

For the compound `COc1cc(/C=C/c2ccc3cccc(O)c3n2)cc(OC)c1OC`, the EC50 is 3.66 µM.

On to `Cc1cc(C)c(C)c(OCCCOc2cccc3cccnc23)c1`, for which the EC50 is 13.5 µM.

Consider `CCC1CCCCN1S(=O)(=O)c1ccc(NC(=O)c2nc(S(C)(=O)=O)ncc2Cl)cc1` (centres undefined), for which the EC50 is 9.42 µM.

With `O=C1CN(/N=C/c2ccc([N+](=O)[O-])o2)C(=O)N1`, the concentration for a half-maximal effect (EC50) is 5.83 µM.

Take `Cc1cc(O)c(C(C)C)cc1C1(c2cc(C(C)C)c(O)cc2C)OC(=O)c2ccccc21`: the half-maximal effective concentration (EC50) was 1.8 µM.

Consider `C/C(N)=C(/C#N)C(=O)COC(=O)c1cc(-c2ccc(Br)cc2)nc2ccccc12`, for which the EC50 is 9.97 µM.

As to `O=C(Nc1nnc(SCc2ccc(F)cc2)s1)c1ccc2c(c1)C(=O)N(c1ccccc1Cl)C2=O`, the EC50 was 6.26 µM.

In the case of `CCOc1ccc(Nc2cc(C)nc(-n3nc(C)cc3C)n2)cc1`, the concentration giving a half-maximal response (EC50) is 14 µM.

For the compound `COc1cc(/C=N/Nc2nc3ccccc3s2)cc([N+](=O)[O-])c1O`, the EC50 is 8.93 µM.

As for `CN1CCN(c2c(F)cc3c(=O)c(C(=O)O)cn4c3c2OCN4C)CC1`, the EC50 is 3.29 µM.

For the compound `C=CC(C)(C)c1c(O)c(CC=C(C)C)c(O)c2c(=O)c3ccc(O)c(O)c3oc12`, the EC50 is 1.8 µM.

For `COc1cccc(C(=O)N/N=C(/c2ccccc2)c2ccccn2)c1`, the EC50 was 8.86 µM.

In the case of `CCOC(=O)C1=C(C)N=c2s/c(=C/c3ccc(OCC(=O)O)c(OC)c3)c(=O)n2C1c1ccc(Cl)cc1` (centres undefined), the EC50 is 5 µM.

`Cc1cc(C)c2c(c1)NC(c1cc3c(cc1Br)OCO3)C1CC=CC21` (centres undefined): the EC50 is 8.13 µM.

As to `CCCOc1ccc(-c2nc(OC)c3ccccc3n2)cc1`, the EC50 is > 15 µM (inactive).

Usually EC50 stands for the concentration at which the effect is half-maximal.
